Values quoted from earlier work, collected in US20250092340A1, “METHOD FOR INDUSTRIALLY PRODUCING MOGROSIDE, FRUCTUS MOMORDICAE SUGAR/WINE AND MANNITOL FROM FRESH FRUCTUS MOMORDICAE” (priority 2022, published 2025).

Details: background statement

| Compound | sweetness relative to sucrose |
| --- | --- |
| C[C@H](CC[C@@H](O[C@@H]1O[C@H](CO)[C@@H](O)[C@H](O)[C@H]1O[C@@H]1O[C@H](CO)[C@@H](O)[C@H](O)[C@H]1O)C(C)(C)O)[C@H]1CC[C@@]2(C)[C@H]3CC=C4[C@@H](CC[C@H](O[C@@H]5O[C@H](CO[C@@H]6O[C@H](CO)[C@@H](O)[C@H](O)[C@H]6O)[C@@H](O)[C@H](O)[C@H]5O)C4(C)C)[C@]3(C)[C@H](O)C[C@]12C [mogroside IV] | 126 folds of that of sucrose |
| C[C@H](CC[C@@H](O[C@@H]1O[C@H](CO[C@@H]2O[C@H](CO)[C@@H](O)[C@H](O)[C@H]2O)[C@@H](O)[C@H](O)[C@H]1O[C@@H]1O[C@H](CO)[C@@H](O)[C@H](O)[C@H]1O)C(C)(C)O)[C@H]1CC[C@@]2(C)[C@@H]3CC=C4[C@@H](CC[C@H](O[C@@H]5O[C@H](CO[C@@H]6O[C@H](CO)[C@@H](O)[C@H](O)[C@H]6O)[C@@H](O)[C@H](O)[C@H]5O)C4(C)C)[C@]3(C)[C@H](O)C[C@]12C [mogroside V] | 256-344 folds of that of sucrose |
